Data from patent publication US11236129B2, “IL-17A binding peptides and medical uses thereof” (Dompe' Farmaceutici S.P.A., priority 2018, dated 2022).
Residues, ends and D or L forms follow the SMILES beside them.

Each compound was assayed against IL-17RA/IL17RC dimerization induced by IL-17A (Homo sapiens, UniProt Q16552) (assay: IL-17RA/IL17RC dimerization assay in response to IL-17A (PathHunter Cytokine Receptor Assay)). Conditions: IL-17A at EC80; read-out: IC50 in IL-17RA/IL7RC dimerization assay.
Format: cell-based
Experimental: The peptides of Table 7 were tested for their ability to inhibit the binding of IL-17A to its receptor and the subsequent interaction of IL-17RA and IL17RC.
Interleukin receptor RA and RC dimerization assay (DiscoverX) was used to measure the interaction of the receptor chains IL-17RA and IL17RC upon activation by IL-17A in the absence or presence of the peptides of Table 7.
In the PathHunter® Cytokine Receptor Assay, one cytokine receptor chain is tagged with a small peptide epitope ProLink (PK) and the other chain is tagged with Enzyme Acceptor (EA). Ligand binding induces dimerization of the two receptors, facilitating complementation of PK and EA fragments. This interaction generates an active unit of b-galactosidase, which is detected using a chemiluminescent substrate. PathHunter cell lines were expanded from freezer stocks according to standard procedures. Cells were seeded in a total volume of 20 μL into white walled, 384-well microplates and incubated for the appropriate time prior to testing. For agonist activity inhibition, cells were incubated with sample to induce response. Intermediate dilution of sample stocks was performed to generate 5× sample in assay buffer. 5 μL of 5× sample was added to cells and incubated at 37° C. or room temperature for 60 minutes. Vehicle concentration was 1%. 5 μL of 6×EC80 agonist (IL-17A) in assay buffer was added to the cells and incubated at 37° C. for 6 to 16 hours depending on the assay. 1. […] For some assays, activity was detected using a high sensitivity detection reagent (PathHunter Flash Kit) to improve assay performance. In these assays, an equal volume of detection reagent (25 or 30 uL) was added to the wells, followed by a one hour incubation at room temperature. Microplates were read following signal generation with a PerkinElmer Envision™ instrument for chemiluminescent signal detection. Compound activity was analyzed using CBIS data analysis suite (ChemInnovation, CA). % Inhibition=100%×(1−(mean RLU of test sample−mean RLU of vehicle control)/(mean RLU of EC80 control−mean RLU of vehicle control)).

Sequence of IL-17RA/IL17RC dimerization induced by IL-17A (Q16552 24-155): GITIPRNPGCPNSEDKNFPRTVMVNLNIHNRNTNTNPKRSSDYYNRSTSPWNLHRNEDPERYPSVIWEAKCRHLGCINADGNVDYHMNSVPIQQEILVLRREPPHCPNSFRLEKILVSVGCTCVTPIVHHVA

Row | SMILES | IC50 [µM]
1 | CC[C@H](C)[C@H](NC(C)=O)C(=O)N[C@@H](Cc1c[nH]cn1)C(=O)N[C@H](C(=O)N[C@H](C(=O)N[C@H](C(=O)N[C@@H](C)C(=O)N[C@@H](C)C(=O)N[C@@H](CC(=O)O)C(=O)N[C@@H](CC(C)C)C(=O)N[C@@H](Cc1c[nH]c2ccccc12)C(=O)N[C@@H](CC(=O)O)C(=O)N[C@@H](Cc1c[nH]c2ccccc12)C(=O)N[C@H](C(=O)N[C@@H](CC(N)=O)C(=O)N[C@@H](CCCCN)C(N)=O)[C@@H](C)CC)[C@@H](C)CC)[C@@H](C)O)C(C)C [SEQ ID NO: 186] (Ac-IHVTIAADLWDWINK-NH2) | < 10
2 | CC[C@H](C)[C@H](NC(C)=O)C(=O)N[C@@H](Cc1c[nH]cn1)C(=O)N[C@H](C(=O)N[C@H](C(=O)N[C@H](C(=O)N[C@H](C(=O)N[C@@H](C)C(=O)N[C@@H](CC(=O)O)C(=O)N[C@@H](CC(C)C)C(=O)N[C@@H](Cc1c[nH]c2ccccc12)C(=O)N[C@@H](CC(=O)O)C(=O)N[C@@H](Cc1c[nH]c2ccccc12)C(=O)N[C@H](C(=O)N[C@@H](CC(N)=O)C(=O)N[C@@H](CCCCN)C(N)=O)[C@@H](C)CC)[C@@H](C)CC)[C@@H](C)CC)[C@@H](C)O)C(C)C [SEQ ID NO: 190] (Ac-IHVTIIADLWDWINK-NH2) | < 10
3 | CC[C@H](C)[C@H](NC(C)=O)C(=O)N[C@@H](Cc1c[nH]cn1)C(=O)N[C@H](C(=O)N[C@H](C(=O)N[C@H](C(=O)N1CCC[C@H]1C(=O)N[C@@H](CC(C)C)C(=O)N[C@@H](CCC(=O)O)C(=O)N[C@H](C(=O)N[C@@H](Cc1ccccc1)C(=O)N[C@@H](CCC(=O)O)C(=O)N[C@@H](Cc1c[nH]c2ccccc12)C(=O)N[C@@H](C)C(=O)N[C@@H](CCC(N)=O)C(=O)N[C@@H](Cc1c[nH]cn1)C(N)=O)[C@@H](C)CC)[C@@H](C)CC)[C@@H](C)O)C(C)C [SEQ ID NO: 247] (Ac-IHVTIPLEIFEWAQH-NH2) | < 10
4 | CC(=O)N[C@H](C(=O)N[C@@H](Cc1c[nH]cn1)C(=O)N[C@H](C(=O)N[C@@H](CO)C(=O)N[C@H](C(=O)N1CCC[C@H]1C(=O)N[C@@H](CCC(N)=O)C(=O)N[C@@H](CCC(=O)O)C(=O)N[C@@H](CC(C)C)C(=O)N[C@@H](Cc1c[nH]c2ccccc12)C(=O)N[C@@H](CCC(=O)O)C(=O)N[C@@H](Cc1c[nH]c2ccccc12)C(=O)N[C@H](C(=O)N[C@@H](CCCNC(=N)N)C(=O)N[C@@H](CCCNC(=N)N)C(N)=O)C(C)C)C(C)C)C(C)C)C(C)C [SEQ ID NO: 231] (Ac-VHVSVPQELWEWVRR-NH2) | < 10
5 | CC(=O)N[C@H](C(=O)N[C@@H](Cc1c[nH]cn1)C(=O)N[C@@H](Cc1ccccc1)C(=O)N[C@H](C(=O)N[C@@H](Cc1ccccc1)C(=O)N1CCC[C@H]1C(=O)N[C@@H](CCC(N)=O)C(=O)N[C@@H](CC(=O)O)C(=O)N[C@@H](CC(C)C)C(=O)N[C@@H](Cc1c[nH]c2ccccc12)C(=O)N[C@@H](CCC(=O)O)C(=O)N[C@@H](Cc1c[nH]c2ccccc12)C(=O)N[C@@H](Cc1ccccc1)C(=O)N[C@@H](CCCNC(=N)N)C(=O)N[C@@H](CCCNC(=N)N)C(N)=O)[C@@H](C)O)C(C)C [SEQ ID NO: 129] (Ac-VHFTFPQDLWEWFRR-NH2) | < 0.5
6 | CC(=O)N[C@H](C(=O)N[C@@H](Cc1c[nH]cn1)C(=O)N[C@@H](Cc1ccccc1)C(=O)N[C@@H](CCC(N)=O)C(=O)N[C@@H](Cc1ccccc1)C(=O)N1CCC[C@H]1C(=O)N[C@@H](CCC(N)=O)C(=O)N[C@@H](CCC(=O)O)C(=O)N[C@@H](Cc1c[nH]c2ccccc12)C(=O)N[C@@H](Cc1ccc(O)cc1)C(=O)N[C@@H](CC(N)=O)C(=O)N[C@@H](Cc1c[nH]c2ccccc12)C(=O)N[C@@H](Cc1ccccc1)C(=O)N[C@@H](CCCNC(=N)N)C(=O)N[C@@H](CCCNC(=N)N)C(N)=O)C(C)C [SEQ ID NO: 154] (Ac-VHFQFPQEWYNWFRR-NH2) | < 0.5
7 | CC[C@H](C)[C@H](NC(C)=O)C(=O)N[C@@H](Cc1c[nH]cn1)C(=O)N[C@@H](Cc1ccc(O)cc1)C(=O)N[C@H](C(=O)N[C@H](C(=O)N1CCC[C@H]1C(=O)N[C@@H](C)C(=O)N[C@@H](CC(=O)O)C(=O)N[C@@H](CC(C)C)C(=O)N[C@@H](Cc1c[nH]c2ccccc12)C(=O)N[C@@H](CC(=O)O)C(=O)N[C@@H](Cc1c[nH]c2ccccc12)C(=O)N[C@H](C(=O)N[C@@H](CC(N)=O)C(=O)N[C@@H](CCCCN)C(N)=O)[C@@H](C)CC)[C@@H](C)CC)[C@@H](C)O [SEQ ID NO: 172] (Ac-IHYTIPADLWDWINK-NH2) | < 10

Second part, the compound after the results:

Row | IC50 [µM] | SMILES
8 | < 10 | CC[C@H](C)[C@H](NC(C)=O)C(=O)N[C@@H](Cc1c[nH]cn1)C(=O)N[C@H](C(=O)N[C@H](C(=O)N[C@H](C(=O)N1CCC[C@H]1C(=O)N[C@@H](C)C(=O)N[C@@H](CC(=O)O)C(=O)N[C@@H](CC(C)C)C(=O)N[C@@H](Cc1ccccc1)C(=O)N[C@@H](CC(=O)O)C(=O)N[C@@H](Cc1c[nH]c2ccccc12)C(=O)N[C@H](C(=O)N[C@@H](CC(N)=O)C(=O)N[C@@H](CCCCN)C(N)=O)[C@@H](C)CC)[C@@H](C)CC)[C@@H](C)O)C(C)C [SEQ ID NO: 207] (Ac-IHVTIPADLFDWINK-NH2)
9 | < 10 | CC[C@H](C)[C@H](NC(C)=O)C(=O)N[C@@H](CCC(=O)O)C(=O)N[C@H](C(=O)N[C@H](C(=O)N[C@H](C(=O)N1CCC[C@H]1C(=O)N[C@@H](C)C(=O)N[C@@H](CC(=O)O)C(=O)N[C@@H](CC(C)C)C(=O)N[C@@H](Cc1c[nH]c2ccccc12)C(=O)N[C@@H](CC(=O)O)C(=O)N[C@@H](Cc1c[nH]c2ccccc12)C(=O)N[C@H](C(=O)N[C@@H](CC(N)=O)C(=O)N[C@@H](CCCCN)C(N)=O)[C@@H](C)CC)[C@@H](C)CC)[C@@H](C)O)C(C)C [SEQ ID NO: 164] (Ac-IEVTIPADLWDWINK-NH2)
10 | < 10 | CC[C@H](C)[C@H](NC(C)=O)C(=O)N[C@@H](CCCNC(=N)N)C(=O)N[C@H](C(=O)N[C@H](C(=O)N[C@H](C(=O)N1CCC[C@H]1C(=O)N[C@@H](C)C(=O)N[C@@H](CC(=O)O)C(=O)N[C@@H](CC(C)C)C(=O)N[C@@H](Cc1c[nH]c2ccccc12)C(=O)N[C@@H](CC(=O)O)C(=O)N[C@@H](Cc1c[nH]c2ccccc12)C(=O)N[C@H](C(=O)N[C@@H](CC(N)=O)C(=O)N[C@@H](CCCCN)C(N)=O)[C@@H](C)CC)[C@@H](C)CC)[C@@H](C)O)C(C)C [SEQ ID NO: 162] (Ac-IRVTIPADLWDWINK-NH2)
11 | < 10 | CC[C@H](C)[C@H](NC(C)=O)C(=O)N[C@@H](Cc1c[nH]cn1)C(=O)N[C@H](C(=O)N[C@@H](CC(N)=O)C(=O)N[C@H](C(=O)N1CCC[C@H]1C(=O)N[C@@H](C)C(=O)N[C@@H](CC(=O)O)C(=O)N[C@@H](CC(C)C)C(=O)N[C@@H](Cc1c[nH]c2ccccc12)C(=O)N[C@@H](CC(=O)O)C(=O)N[C@@H](Cc1c[nH]c2ccccc12)C(=O)N[C@H](C(=O)N[C@@H](CC(N)=O)C(=O)N[C@@H](CCCCN)C(N)=O)[C@@H](C)CC)[C@@H](C)CC)C(C)C [SEQ ID NO: 177] (Ac-IHVNIPADLWDWINK-NH2)
12 | < 10 | CC[C@H](C)[C@H](NC(C)=O)C(=O)N[C@@H](Cc1c[nH]cn1)C(=O)N[C@H](C(=O)N[C@H](C(=O)N[C@H](C(=O)N[C@@H](CC(N)=O)C(=O)N[C@@H](C)C(=O)N[C@@H](CC(=O)O)C(=O)N[C@@H](CC(C)C)C(=O)N[C@@H](Cc1c[nH]c2ccccc12)C(=O)N[C@@H](CC(=O)O)C(=O)N[C@@H](Cc1c[nH]c2ccccc12)C(=O)N[C@H](C(=O)N[C@@H](CC(N)=O)C(=O)N[C@@H](CCCCN)C(N)=O)[C@@H](C)CC)[C@@H](C)CC)[C@@H](C)O)C(C)C [SEQ ID NO: 191] (Ac-IHVTINADLWDWINK-NH2)
13 | < 10 | CC[C@H](C)[C@H](NC(C)=O)C(=O)N[C@@H](Cc1c[nH]cn1)C(=O)NCC(=O)N[C@H](C(=O)N[C@H](C(=O)N1CCC[C@H]1C(=O)N[C@@H](C)C(=O)N[C@@H](CC(=O)O)C(=O)N[C@@H](CC(C)C)C(=O)N[C@@H](Cc1c[nH]c2ccccc12)C(=O)N[C@@H](CC(=O)O)C(=O)N[C@@H](Cc1c[nH]c2ccccc12)C(=O)N[C@H](C(=O)N[C@@H](CC(N)=O)C(=O)N[C@@H](CCCCN)C(N)=O)[C@@H](C)CC)[C@@H](C)CC)[C@@H](C)O [SEQ ID NO: 168] (Ac-IHGTIPADLWDWINK-NH2)
14 | < 10 | CC[C@H](C)[C@H](NC(C)=O)C(=O)N[C@@H](Cc1c[nH]cn1)C(=O)N[C@H](C(=O)N[C@H](C(=O)N[C@H](C(=O)N1CCC[C@H]1C(=O)N[C@@H](C)C(=O)N[C@@H](CC(=O)O)C(=O)N[C@@H](CC(C)C)C(=O)N[C@@H](Cc1c[nH]c2ccccc12)C(=O)N[C@@H](CC(=O)O)C(=O)N[C@@H](Cc1c[nH]c2ccccc12)C(=O)N[C@@H](CCC(=O)O)C(=O)N[C@@H](CC(N)=O)C(=O)N[C@@H](CCCCN)C(N)=O)[C@@H](C)CC)[C@@H](C)O)C(C)C [SEQ ID NO: 212] (Ac-IHVTIPADLWDWENK-NH2)
